In patent US9210928B2, “Plant development control composition” (Syngenta Crop Protection, LLC, priority 2008, dated 2015):
“Also recorded” adds a separate entry of the source.

Molecular target: T1, AtCCD7 (Arabidopsis thaliana, UniProt Q7XJM2)
T1 construct: expressed in transfected cells; host or cells: E. coli BL21(DE3) harbouring pAC-BETA
T1 sequence (Q7XJM2 32-618): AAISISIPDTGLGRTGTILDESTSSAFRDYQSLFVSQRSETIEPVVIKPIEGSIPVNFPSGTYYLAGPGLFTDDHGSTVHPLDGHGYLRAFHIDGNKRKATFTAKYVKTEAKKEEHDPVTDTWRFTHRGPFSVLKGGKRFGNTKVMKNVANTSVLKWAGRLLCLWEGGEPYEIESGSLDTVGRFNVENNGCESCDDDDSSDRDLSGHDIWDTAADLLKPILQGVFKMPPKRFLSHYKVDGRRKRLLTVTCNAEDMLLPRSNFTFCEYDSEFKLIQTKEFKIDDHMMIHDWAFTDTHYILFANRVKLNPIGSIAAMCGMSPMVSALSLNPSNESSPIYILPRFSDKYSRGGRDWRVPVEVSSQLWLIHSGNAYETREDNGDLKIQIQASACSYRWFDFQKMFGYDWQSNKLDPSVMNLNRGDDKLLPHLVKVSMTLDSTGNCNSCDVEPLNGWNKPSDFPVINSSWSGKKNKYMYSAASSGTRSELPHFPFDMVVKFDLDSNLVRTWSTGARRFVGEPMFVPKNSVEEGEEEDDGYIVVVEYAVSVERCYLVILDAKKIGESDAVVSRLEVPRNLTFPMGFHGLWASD
Test: In vivo enzyme assay in β-carotene-producing E. coli expressing AtCCD7
Assay type: cell-based
Settings: 100 μM inhibitor, 16 hours; FIG. 4
Source text: In vivo enzyme assays in E. coli—The genes of interest (supplemental Table S1) were cloned into the vector pET30c (Novagen) fused directly to the initial ATG codon with no tag, or into pGEX-4T such that the gene was fused to an N-terminal GST tag. All genes were full length except AtCCD7, which had the chloroplast signal sequence removed (supplemental methods). […] Therefore, this construct was used in subsequent assays. The plasmids were transferred to the E. coli expression strain BL21(DE3), harbouring pAC-BETA (38), and therefore producing β-carotene.
For each inhibitor assay, 2.5 ml LB media with the appropriate antibiotics (25 μg ml^−1 chloramphenicol and 50 μg ml^−1 kanamycin or 100 μg ml^−1 ampicillin) and 2.5 μM IPTG, was prepared. Inhibitors (0.1 M in 100% ethanol) were added to the media to a final concentration of 100 μM. The media was then inoculated with 0.25 ml of overnight culture (grown at 37° C. with the appropriate antibiotics) and incubated with shaking (200 rpm) at 28° C. for 16 hours. One ml of culture was harvested by microcentrifugation and resuspended thoroughly in 1 ml ethanol containing 0.2% Triton X-100. […] The supernatant was removed and the O.D.453-O.D.550 was measured. The amount of β-carotene was calculated using a standard curve generated from a dilution series of β-carotene (Sigma) in ethanol with 0.2% Triton X-100; the absolute levels of β-carotene are shown in FIG. 8. The relative inhibition was calculated by the equation: (Ci−Cc)/(C1−Cc)×100, where Ci is the carotenoid level with inhibitor and CCD present, Cc is the level with CCD but without the inhibitor and C1 is the level in a strain where lacZ is expressed instead of the CCD, and no inhibitor is present. […]
In vivo activity of inhibitors applied to E. coli strains expressing CCDs—Coloured E. coli strains that produce various carotenoids can be constructed by expression of enzymes for carotenoid synthesis (26). […] The difference in the carotenoid levels gave a measure of CCD activity, and inhibition of this activity was measured by addition of inhibitors to the growing medium. […]

Row | Compound | relative inhibition of AtCCD7 in E. coli (in words)
1 | COc1ccc(C(=O)N(O)Cc2ccccc2)cc1 [Compound F1, N-benzyl-4-methoxybenzoyl hydroxamic acid] | poor inhibition; also recorded: relatively small activity; also recorded: relatively ineffective against AtCCD7; also recorded: poor inhibitors against AtCCD7
2 | COc1ccc(C(=O)N(O)Cc2ccc(F)cc2)cc1 [Compound F2, N-(4-fluorobenzyl)-4-methoxybenzoyl hydroxamic acid] | poor inhibition; also recorded: relatively small activity; also recorded: relatively ineffective against AtCCD7; also recorded: poor inhibitors against AtCCD7
3 | COc1ccc(C(=O)N(O)Cc2ccccc2)cc1OC [Compound F3, N-benzyl-3,4-dimethoxybenzoyl hydroxamic acid] | inactive
